The text below walks through data of ChEMBL document CHEMBL1145739, “N-(3-phenylsulfonyl-3-piperidinoyl)-phenylalanine derivatives as potent, selective VLA-4 antagonists” (Bioorg Med Chem Lett, 2003).

The target of data set [1] is T1, Integrin alpha-4/beta-7 (Homo sapiens, UniProt P13612+P26010).
T1 sequence (P13612 whole entry): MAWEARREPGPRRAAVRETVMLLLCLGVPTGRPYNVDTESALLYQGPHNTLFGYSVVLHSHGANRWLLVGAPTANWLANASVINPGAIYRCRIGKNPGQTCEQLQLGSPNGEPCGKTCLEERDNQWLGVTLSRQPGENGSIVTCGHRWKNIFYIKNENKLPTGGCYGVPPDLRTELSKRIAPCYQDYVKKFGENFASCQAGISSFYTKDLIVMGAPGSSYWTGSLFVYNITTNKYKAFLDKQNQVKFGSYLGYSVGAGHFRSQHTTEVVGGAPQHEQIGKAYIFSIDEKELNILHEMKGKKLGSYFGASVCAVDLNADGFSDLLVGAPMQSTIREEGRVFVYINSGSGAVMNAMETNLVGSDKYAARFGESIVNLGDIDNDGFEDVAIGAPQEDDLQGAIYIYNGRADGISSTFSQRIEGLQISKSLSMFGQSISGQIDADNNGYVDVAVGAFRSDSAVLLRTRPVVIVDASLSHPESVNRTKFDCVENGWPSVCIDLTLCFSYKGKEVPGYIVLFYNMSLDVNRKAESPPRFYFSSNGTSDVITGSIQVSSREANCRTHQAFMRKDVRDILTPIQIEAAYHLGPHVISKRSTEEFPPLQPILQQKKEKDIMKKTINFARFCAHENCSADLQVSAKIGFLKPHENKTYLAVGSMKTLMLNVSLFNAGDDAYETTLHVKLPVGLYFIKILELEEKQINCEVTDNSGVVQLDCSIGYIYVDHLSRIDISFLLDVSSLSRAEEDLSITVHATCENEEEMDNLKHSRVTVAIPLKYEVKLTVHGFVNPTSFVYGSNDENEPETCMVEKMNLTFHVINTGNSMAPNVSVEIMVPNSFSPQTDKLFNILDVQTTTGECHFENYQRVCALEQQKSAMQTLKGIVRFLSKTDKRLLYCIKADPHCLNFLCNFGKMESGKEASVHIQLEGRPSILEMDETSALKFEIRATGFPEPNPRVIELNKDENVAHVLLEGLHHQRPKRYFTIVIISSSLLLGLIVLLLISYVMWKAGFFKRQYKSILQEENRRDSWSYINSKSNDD
T1 sequence (P26010 whole entry): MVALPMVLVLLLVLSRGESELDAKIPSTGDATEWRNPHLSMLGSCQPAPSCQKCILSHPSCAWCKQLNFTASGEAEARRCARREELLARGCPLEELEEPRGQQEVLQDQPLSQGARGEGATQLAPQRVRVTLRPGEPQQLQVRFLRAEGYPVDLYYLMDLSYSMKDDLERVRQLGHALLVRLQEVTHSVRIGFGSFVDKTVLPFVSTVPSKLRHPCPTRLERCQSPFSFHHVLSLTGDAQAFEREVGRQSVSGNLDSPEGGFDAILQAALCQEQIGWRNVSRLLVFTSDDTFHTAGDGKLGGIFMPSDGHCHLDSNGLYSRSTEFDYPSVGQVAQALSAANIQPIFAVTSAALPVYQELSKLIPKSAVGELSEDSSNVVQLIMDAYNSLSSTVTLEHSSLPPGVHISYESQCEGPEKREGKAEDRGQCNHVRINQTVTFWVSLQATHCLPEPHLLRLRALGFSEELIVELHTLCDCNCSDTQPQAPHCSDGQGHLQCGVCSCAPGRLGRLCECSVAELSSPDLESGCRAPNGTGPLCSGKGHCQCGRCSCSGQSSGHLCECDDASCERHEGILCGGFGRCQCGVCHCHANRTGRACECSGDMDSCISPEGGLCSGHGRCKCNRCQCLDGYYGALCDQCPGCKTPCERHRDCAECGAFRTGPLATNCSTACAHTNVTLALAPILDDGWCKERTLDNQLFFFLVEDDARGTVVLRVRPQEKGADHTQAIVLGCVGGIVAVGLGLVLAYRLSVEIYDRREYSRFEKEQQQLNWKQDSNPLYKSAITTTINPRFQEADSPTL
As to the kind of experiment: Inhibition of [125I]-VCAM-Ig binding to human integrin alpha4-beta7 receptor in RPMI-8866 cells. It is filed as cell-based.

The next data set has as its target Integrin alpha-4/beta-1 (Homo sapiens, UniProt P05556+P13612). As to the kind of experiment: Binding affinity towards VLA-4 (alpha4 beta-1) receptor in human Jurkat cells using [125I]VCAM-Ig as radioligand. It is filed as cell-based.
The nature of data set [2]: Oral bioavailability in rat (Sprague-Dawley) (dose 2 mg/kg). It is filed as ADME, organism-based. The settings on record: in vivo.
Data set [3] is described as follows: Half life time was evaluated at 1 mg/kg of iv administration in Sprague-Dawley rats. The settings on record: rat, in vivo. Also on record: dose 1 mg/kg, route intravenous. It is filed as ADME, organism-based.
The nature of data set [4]: Plasma clearance was evaluated at 1 mg/kg of iv administration in Sprague-Dawley rats. The settings on record: rat, read-out: Clp. Also on record: dose 1 mg/kg, route intravenous. It is filed as ADME, organism-based.
In data set [5] the target is T1, Integrin alpha-4/beta-7. Nature of the data set: Binding affinity towards […] receptor in human RPMI-8866 B-cell line using [125I]MAdCAM-Ig as radioligand.
The target of data set [6] is T2, Integrin alpha-4/beta-7 (Homo sapiens) (UniProt P13612+P26010). As to the kind of experiment: Percent inhibition of [125I]VCAM-Ig binding to human integrin alpha4-beta7 receptor of RPMI-8866 cells at 100 nM. It is filed as cell-based.
Data set [7] deals with T2, Integrin alpha-4/beta-7 (Homo sapiens). Nature of the data set: Percent inhibition of [125I]MAdCAM-Ig binding to human integrin alpha4-beta7 receptor of RPMI-8866 cells at 100 nM. It is filed as cell-based.

pIC50: −log10 of the molar value.

Integrin alpha-4/beta-1, sequence (P05556 whole entry, one chain of several): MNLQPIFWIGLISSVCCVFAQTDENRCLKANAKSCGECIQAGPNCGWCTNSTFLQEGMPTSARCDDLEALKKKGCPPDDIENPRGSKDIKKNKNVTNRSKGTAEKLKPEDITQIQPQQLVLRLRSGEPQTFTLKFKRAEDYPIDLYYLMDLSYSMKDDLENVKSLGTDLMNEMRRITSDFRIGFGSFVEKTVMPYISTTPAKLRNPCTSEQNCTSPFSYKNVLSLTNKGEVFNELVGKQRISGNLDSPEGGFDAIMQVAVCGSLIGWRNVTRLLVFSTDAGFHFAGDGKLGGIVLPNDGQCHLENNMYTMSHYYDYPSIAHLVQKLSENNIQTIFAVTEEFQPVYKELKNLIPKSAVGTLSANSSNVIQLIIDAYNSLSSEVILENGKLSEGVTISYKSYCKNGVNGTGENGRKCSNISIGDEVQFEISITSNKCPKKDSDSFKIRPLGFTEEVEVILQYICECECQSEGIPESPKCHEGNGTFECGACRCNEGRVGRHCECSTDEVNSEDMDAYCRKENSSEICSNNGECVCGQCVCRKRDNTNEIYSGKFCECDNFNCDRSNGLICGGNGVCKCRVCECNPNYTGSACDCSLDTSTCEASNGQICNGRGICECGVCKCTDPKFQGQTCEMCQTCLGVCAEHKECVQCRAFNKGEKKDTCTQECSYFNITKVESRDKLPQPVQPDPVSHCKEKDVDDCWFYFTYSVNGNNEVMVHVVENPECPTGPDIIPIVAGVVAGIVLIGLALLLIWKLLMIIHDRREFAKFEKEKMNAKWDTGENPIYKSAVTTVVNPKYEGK

For `COc1ccccc1-c1ccc(C[C@H](NC(=O)C2(S(=O)(=O)c3nccn3C)CCCC2)C(=O)O)cc1`, the pIC50 – broadly, the negative decadic logarithm of the IC50, by convention in mol/L – is 8.40 on Integrin alpha-4/beta-7 [1] and 9.68 on Integrin alpha-4/beta-1.

Regarding `COc1cccc(OC)c1-c1ccc(C[C@H](NC(=O)C2(S(=O)(=O)c3ccccc3)CCOCC2)C(=O)O)cc1`, the bioavailability (usually dose-corrected exposure relative to a reference, in per cent) in data set [2] was determined as 3%. In addition, the half-life (as a rule, the time needed for the level to fall by half in the phase considered) in data set [3] is 48 min. Besides, in data set [4], the clearance was determined as 133 mL/min/kg. Further, the pIC50 on Integrin alpha-4/beta-1 was 9.80; on Integrin alpha-4/beta-7 [5], 7.42.

Consider `COc1ccccc1-c1ccc(C[C@H](NC(=O)C2(S(=O)(=O)C(C)(C)C)CCCC2)C(=O)O)cc1`, for which the figures for the pIC50 at Integrin alpha-4/beta-7 [1] and at Integrin alpha-4/beta-1 were 7.72 and 9.33, respectively.

Consider `COc1ccccc1-c1ccc(C[C@H](NC(=O)C2(S(=O)(=O)c3ccc(C)cc3)CCCCC2)C(=O)O)cc1`, for which the pIC50 is 7.04 on Integrin alpha-4/beta-7 [1] and 8.82 on Integrin alpha-4/beta-1.

With `COc1ccccc1-c1ccc(C[C@H](NC(=O)C2(S(=O)(=O)c3ccccc3C)CCCCC2)C(=O)O)cc1`, the values for the pIC50 on Integrin alpha-4/beta-7 [1] and at Integrin alpha-4/beta-1 were 6.83 and 8.57, respectively.

The molecule `O=C(O)[C@H](Cc1ccc(-c2ccccc2)cc1)NC(=O)C1(S(=O)(=O)c2ccccc2)CCCC1` had a pIC50 at Integrin alpha-4/beta-1 of 7.55. Besides, in data set [6], the inhibition (as a rule, the relative decrease from the control value, in per cent) worked out at 18%.

As to `COc1ccccc1-c1ccc(C[C@H](NC(=O)C2(S(=O)(=O)c3ccc(Cl)cc3)CCCCC2)C(=O)O)cc1`, the negative logarithm of the IC50 (pIC50) at Integrin alpha-4/beta-7 [1] is 7.28; at Integrin alpha-4/beta-1, 8.96.

In data set [2], `O=C(Nc1ccc(C[C@H](NC(=O)C2(S(=O)(=O)c3ccccc3)CCCNC2)C(=O)O)cc1)c1c(Cl)cccc1Cl` (some centres undefined) displayed a bioavailability of 0%. Further, the half-life in data set [3] is 18 min. In data set [4], the clearance was determined as 78 mL/min/kg. Moreover, the results for the pIC50 on Integrin alpha-4/beta-1 and at Integrin alpha-4/beta-7 [5] were 9.72 and 7.66, respectively.

As for `O=C(O)[C@H](Cc1ccc(-c2ccccc2)cc1)NC(=O)C1(S(=O)(=O)C2CCCCC2)CCCCC1`, at Integrin alpha-4/beta-1, the pIC50 is 7.85. Further, the inhibition in data set [6] was found to be 24%.

On to `O=C(O)[C@H](Cc1ccc(-c2ccccc2)cc1)NC(=O)C1(S(=O)(=O)c2cccc3ccccc23)CCCC1`, for which, at Integrin alpha-4/beta-1, the pIC50 is 6.13. Moreover, the inhibition in data set [6] is 7%.

With `COc1cccc(OC)c1-c1ccc(C[C@H](NC(=O)C2(S(=O)(=O)c3ccccc3)CCCNC2)C(=O)O)cc1` (some centres undefined), the bioavailability in data set [2] amounted to 1%. This molecule also showed a half-life in data set [3] of 30 min. Moreover, the clearance in data set [4] amounted to 46 mL/min/kg. Besides, the pIC50 at Integrin alpha-4/beta-1 was 10.05; at Integrin alpha-4/beta-7 [5] it was 6.77.

Regarding `COc1ccccc1-c1ccc(C[C@H](NC(=O)C2(S(=O)(=O)c3cccc(C)c3)CCCCC2)C(=O)O)cc1`, the pIC50 at Integrin alpha-4/beta-7 [1] is 7.11; at Integrin alpha-4/beta-1, 9.00.

On to `O=C(O)[C@H](Cc1ccc(-c2ccccc2)cc1)NC(=O)C1(S(=O)(=O)Cc2ccccc2)CCCCC1`, for which the pIC50 at Integrin alpha-4/beta-1 is 7.19. Moreover, the inhibition in data set [6] amounted to 14%.

For `O=C(O)[C@H](Cc1ccc(-c2ccccc2)cc1)NC(=O)C1(S(=O)(=O)c2ccccc2)CC=CC1`, on Integrin alpha-4/beta-1, the pIC50 was 6.56. Moreover, the inhibition in data set [7] came to 7%.

Regarding `O=C(O)[C@H](Cc1ccc(-c2ccccc2)cc1)NC(=O)C1(S(=O)(=O)Cc2ccccc2)CCCC1`, the pIC50 on Integrin alpha-4/beta-1 is 7.09. The inhibition in data set [6] is -7%.

In turn, `O=C(O)[C@H](Cc1ccc(-c2ccccc2)cc1)NC(=O)C1(S(=O)(=O)c2ccc(Br)cc2)CCCC1` showed a pIC50 at Integrin alpha-4/beta-1 of 7.64. Moreover, the inhibition in data set [6] came to 20%.

In the case of `Cc1ccc(S(=O)(=O)C2(C(=O)N[C@@H](Cc3ccc(-c4ccccc4)cc3)C(=O)O)CCCC2)cc1`, the pIC50 on Integrin alpha-4/beta-1 was 7.55. Besides, the inhibition in data set [6] was 2%.

In the case of `O=C(Nc1ccc(C[C@H](NC(=O)C2(S(=O)(=O)c3ccccc3)CCOCC2)C(=O)O)cc1)c1c(Cl)cccc1Cl`, in data set [2], the bioavailability worked out at 1%. This molecule also had a half-life in data set [3] of 36 min. Further, the clearance in data set [4] worked out at 48 mL/min/kg. Besides, the pIC50 at Integrin alpha-4/beta-1 was 9.66; on Integrin alpha-4/beta-7 [5], 7.70.

On to `COc1ccccc1-c1ccc(C[C@H](NC(=O)C2(S(=O)(=O)C3CCCCC3)CCCC2)C(=O)O)cc1`, for which the pIC50 at Integrin alpha-4/beta-7 [1] is 7.28; on Integrin alpha-4/beta-1, 8.96.

For the molecule `COc1ccccc1-c1ccc(C[C@H](NC(=O)C2(S(=O)(=O)c3ccccc3)CCCC2)C(=O)O)cc1`, the pIC50 at Integrin alpha-4/beta-7 [1] was 7.08; on Integrin alpha-4/beta-1, 9.48.

On Integrin alpha-4/beta-1, `O=C(O)[C@H](Cc1ccc(-c2ccccc2)cc1)NC(=O)C1(S(=O)(=O)C2CCCCC2)CCCC1` showed a pIC50 of 8.15. Further, the inhibition in data set [6] stood at 16%.

Consider `COc1ccccc1-c1ccc(C[C@H](NC(=O)C2(S(=O)(=O)c3ccc(F)cc3)CCCCC2)C(=O)O)cc1`, for which the pIC50 on Integrin alpha-4/beta-7 [1] is 7.60; at Integrin alpha-4/beta-1 it was 9.12.

For `O=C(O)[C@H](Cc1ccc(-c2ccccc2)cc1)NC(=O)C1(S(=O)(=O)c2ccc(Br)cc2)CCCCC1`, on Integrin alpha-4/beta-1, the pIC50 was 7.36. The inhibition in data set [6] came out at 19%.

`O=C(O)[C@H](Cc1ccc(-c2ccccc2)cc1)NC(=O)C1(S(=O)(=O)c2ccccc2Br)CCCC1`: the negative-log IC50 (pIC50) on Integrin alpha-4/beta-1 is 6.98. Besides, in data set [6], the inhibition was determined as 8%.

In turn, `Cc1ccc(S(=O)(=O)C2(C(=O)N[C@@H](Cc3ccc(-c4ccccc4)cc3)C(=O)O)CCCCC2)cc1` gave a pIC50 at Integrin alpha-4/beta-1 of 7.28. Moreover, the inhibition in data set [6] was 0%.

On to `O=C(O)[C@H](Cc1ccc(-c2ccccc2)cc1)NC(=O)C1(S(=O)(=O)c2ccccc2Br)CCCCC1`, for which the pIC50 on Integrin alpha-4/beta-1 is 7.35. In data set [6], the inhibition worked out at 13%.
